± gives the expanded uncertainty stated by the source.
Key:
[1] = refractive index (Na D-line) (dimensionless); settings: 293.15 K; 101.33 kPa; Liquid; Standard Abbe refractometry
[2] = Liquid; for mass density: 293.15 K, 101.33 kPa, Vibrating tube method; for vapor or sublimation pressure: Ebulliometric method (Recirculating still)
[3] = Boiling temperature at pressure P; settings: Liquid, Ebulliometric method (Recirculating still)

| Structure (SMILES) | refractive index [1] | mass density [2] [kg/m3] | vapor or sublimation pressure ([2]; 343.15 K) [kPa] | vapor or sublimation pressure ([2]; 358.15 K) [kPa] | vapor or sublimation pressure ([2]; 363.15 K) [kPa] | Boiling temperature at pressure P ([3]; 19.9 kPa) [°C] | Boiling temperature at pressure P ([3]; 34.33 kPa) [°C] | Boiling temperature at pressure P ([3]; 39.89 kPa) [°C] | Boiling temperature at pressure P ([3]; 49.89 kPa) [°C] | Boiling temperature at pressure P ([3]; 58.58 kPa) [°C] | Boiling temperature at pressure P ([3]; 69.3 kPa) [°C] | Boiling temperature at pressure P ([3]; 79.88 kPa) [°C] | Boiling temperature at pressure P ([3]; 89.88 kPa) [°C] | Boiling temperature at pressure P ([3]; 98.88 kPa) [°C] |
| --- | --- | --- | --- | --- | --- | --- | --- | --- | --- | --- | --- | --- | --- | --- |
| CC(C)CO [2-methyl-1-propanol] | 1.3959 ± 0.0009 | 801.49 ± 2 | – | – | – | – | – | – | – | – | – | – | – | – |
| CCCC(C)=O [pentan-2-one] | 1.3906 ± 0.0009 | 805.86 ± 2 | 34.4 ± 0.32 | 58.64 ± 0.39 | 69.36 ± 0.46 | 56.44 ± 0.22 | 70.32 ± 0.22 | 74.40 ± 0.19 | 80.62 ± 0.18 | 85.30 ± 0.17 | 90.4 ± 0.17 | 94.76 ± 0.17 | 98.53 ± 0.16 | 101.59 ± 0.16 |
